According to patent US20230391868A1, “COMPOSITIONS FOR AND METHODS OF TREATING CANCER” (The George Washington University, priority 2022, published 2023):

Experiments:
[1] = test system: A31A7 macrophages; test: Western Blotting of A31A7 macrophages polarized to M2; assay type: cell-based, mouse; details: Western Blot, M2 A31A7 (FIG. 7F)
Description: Cells were treated with the respective compounds for 24 h. Then, cells were lysed using RIPA buffer (ThermoFisher Scientific Pierce, 89901, Waltham, MA) supplemented with 1× protease and phosphatase inhibitor (ThermoFisher Scientific, A32961). Lysates were sonicated at 4° C. for 8 minutes (8 cycles of 30 sec on, 30 sec off). Protein concentration was quantified using a BCA protein assay (ThermoFisher Scientific, 23225) following manufacturer's instructions. Samples were mixed with 6× Laemmli SDS sample reducing buffer (Alfa Aesar, J61337AC, Tewksbury, MA), and boiled at 80° C. for 10 min. Next, samples were loaded on to 4%-20% gels (Bio-Rad, 4561096, Hercules, CA), transferred to PVDF membranes and blocked with Odyssey Blocking Buffer (LI-COR Biosciences, 927-40000, Lincoln, NE). The following primary antibodies used for immunoblotting were purchased from Cell Signaling Technologies (Danvers, MA): tubulin (3873), acetylated tubulin (3971), arginase-1 (93668), and SIRPα (13379). Primary antibody recognizing HDAC6 was purchased from Assay Biotechnology (C0226, Fremont, CA), and iNOS antibody was purchased from ThermoFisher Scientific (PA3-030A). Bands were detected using Azure Biosystems Imaging System c600 (Azure Biosystems, Dublin, CA).

[2] = test system: SM1 melanoma tumors; test: Immunophenotyping of SM1 tumors by flow cytometry; assay type: in vivo, mouse
Description: Flow Cytometry: Immunophenotyping of tumors by flow cytometry was performed following the protocol previously described (Knox T, et al. (2019) Sci. Rep. 9:6136; Banik D, et al. (2020) Cancer Res. 80:3649-3662). When control tumors reached the endpoint (2000 mm^3), mice were euthanized following the IACUC protocol at The George Washington University, and tumors were processed into a single-cell suspension for analysis by flow cytometry with tumor digestion buffer containing collagenases I and IV, hyaluronidase V, and DNAse I. Dead cells were discriminated using LIVE/DEAD™ Fixable Aqua Dead Cell Stain Kit (ThermoFisher Scientific, L34965). The antibodies used to stain cell surface markers were all purchased from BioLegend (San Diego, CA) unless otherwise mentioned. Myeloid cell surface markers include: APC/Fire 750 anti-mouse CD45.2 (clone 104), Brilliant Violet 421 anti-mouse/human CD11b (clone M1/70), Brilliant Violet 605 anti-mouse Ly-6G/Ly-6C (Gr-1) (clone RB6-8C5), Brilliant Violet 785 anti-mouse F4/80 (clone BM8), APC anti-mouse CD80 (clone 16-10A1), PerCP/Cyanine5.5 anti-mouse H-2Kd (clone SF1-1.1), PE/Cy7 anti-mouse CD206 (MMR) (clone C068C2), PE anti-mouse CD163 (clone 5B11), and Alexa Fluor 700 anti-mouse CD3 (clone 17A2). T cell surface markers are as follows: Brilliant Violet 785 anti-mouse CD45.2 (clone 104), PerCP/Cy5.5 anti-mouse CD3 (clone 17A2), APC/Fire 750 anti-mouse CD8a (clone 53-6.7), Brilliant Violet 650 anti-mouse CD4 (clone GK1.5), Brilliant Violet 605 anti-mouse CD44 (clone IM7), PE anti-mouse CD62L (clone MEL-14), and Pacific Blue anti-mouse CD25 (clone PC61). NK cell surface markers are as follows: Brilliant Violet 785 anti-mouse CD45.2 (clone 104), PerCP/Cy5.5 anti-mouse CD3 (clone 17A2), PE/Cy7 anti-mouse CD49b (pan-NK cells) (clone DX5), Brilliant Violet 421 anti-mouse CD16/32 (clone 93), Alexa Fluor 700 anti-mouse CD8a (clone 53-6.7), and PE anti-mouse 4-1BB (clone 17B5). Multicolor flow data was acquired using a BD FACS Celesta Cell Analyzer, and data analysis was performed with FlowJo software version 10.3. The gating strategies for each immune cell panel can be found in FIG. 11A-FIG. 11C.
To evaluate the effects of the single arms and combination therapy, the tumors were harvested at the experimental endpoint and immunophenotyping was performed by flow cytometry. Overall, the combination of NextA and anti-CD47 had immunomodulatory effects and enhanced immune cell infiltration in the TME. […] The different macrophage populations in the tumors were evaluated (FIG. 6B).

[3] = test system: SIRPα; test: SIRPα expression on NK cells; assay type: cell-based

CCCCN(Cc1ccc(C(=O)NO)cc1)C(=O)Nc1ccccc1 [NextA, Nexturastat A]
ARG1 expression [1]: decrease | HDAC6 inhibitor potency compared with Tubacin and Tubastatin A [1]: most potent HDAC6 inhibitor | acetylated tubulin, a marker for HDAC6 inhibition [1]: robust increase | M1/M2 ratio ([2]; SM1 tumors): increased | M1-like macrophages (CD80+, H2Kd+, F4/80+) ([2]; SM1 tumors (FIG. 6B)): significantly increased | M2-like macrophages (CD206+, CD163+, F4/80+) ([2]; SM1 tumors (FIG. 6B)): significantly decreased | CD3 T cell infiltration ([2]; SM1 tumors (FIG. 6C)): increased | total NKT, CD8+ NKT, and CD137+ CD8+ NKT cells in the TME ([2]; SM1 tumors (FIG. 6J)): significantly increased | SIRPα expression on NK cells [3]: downregulated
